Measurements published in patent publication US20090062120A1, “Agrochemical Composition” (priority 2005, published 2009).

Tests used:
[1] = Solubilities of active agrochemical substances in acetylcaprolactam
[2] = type: physicochemical; conditions: for External appearance of dilution [5% in water] / Crystal formation in dilution [5% in water; 24 hours, 30° C.] / External appearance of dilution [5% in water; 24 hours, 30° C.] / External appearance of formulation [25° C.; on day of preparation] / External appearance of formulation [after 48 hours at 0° C.]: 2,4-D isopropylamine salt 300 g/l; for External appearance of dilution [5% in water] / Crystal formation in dilution [5% in water; 24 hours, 30° C.] / External appearance of dilution [5% in water; 24 hours, 30° C.]: solvent 5% by volume; for External appearance of dilution [5% in water]: 5% (v/v) dilution in water, 500 ppm CaCO3; for Crystal formation in dilution [5% in water; 24 hours, 30° C.] / External appearance of dilution [5% in water; 24 hours, 30° C.]: 5% dilution in water; for External appearance of formulation [25° C.; on day of preparation] / External appearance of formulation [after 48 hours at 0° C.]: solvent addition 5% by volume
Description: In the form of its amine salts, 2,4-dichlorophenoxyacetic acid tends to crystallize out of concentrated solutions. It is state of the art to use an approximately 5% addition of NMP in order to prevent crystallization. In the present example the isopropylamine salt of 2,4-dichlorophenoxyacetic acid was used, 2,4-D IPA for short.
Concentrated aqueous solutions of 2,4-D in isopropylamine salt form (350 g/l) were admixed with quantities of demineralized water and of the corresponding solvent addition such that the concentration of 2,4-D isopropylamine salt was 300 g/l and that of the solvent under test was 5% v/v. Then the external appearance, instantaneously (see column 2 of Table 5) and after storage at 0° C. […] Particular emphasis was placed on any crystal formation.

[3] = Dissolution of tebuconazole in standard aromatic solvents alone; type: physicochemical; conditions: exclusive use of Solvesso 150 or Solvesso 200, without acetylcaprolactam; 250 g/l
Description: A corresponding formulation using these solvents alone, therefore, cannot be prepared.

[4] = cited from earlier work

External appearance of dilution [5% in water] [2] | Crystal formation in dilution [5% in water; 24 hours, 30° C.] [2] | External appearance of dilution [5% in water; 24 hours, 30° C.] [2] | External appearance of formulation [25° C.; on day of preparation] [2] | External appearance of formulation [after 48 hours at 0° C.] [2] | Behavior compared with NMP [2] | Structure (SMILES) | Solubility (% by wt.) at 25° C. [1] | Dissolution at the concentration specified in Example 4 [3] | Toxic effect observed in animal experiments [4]
clear | no crystals | clear solution, | clear solution | clear solution | closest to NMP | CC(=O)N1CCCCCC1=O [Peractive LAC, acetylcaprolactam] | – | – | –
clear | <1% | clear solution, | clear solution | clear solution | – | COCCOCCOCCOCCOC [Tetraethylene glycol dimethyl ether] | – | – | –
clear | >1% | clear solution, | clear solution | clear solution | – | COCCOCCOCCOC [Triethylene glycol dimethyl ether] | – | – | –

The remaining lines, values behind:

Structure (SMILES) | External appearance of dilution [5% in water] [2] | Crystal formation in dilution [5% in water; 24 hours, 30° C.] [2] | External appearance of dilution [5% in water; 24 hours, 30° C.] [2] | External appearance of formulation [25° C.; on day of preparation] [2] | External appearance of formulation [after 48 hours at 0° C.] [2] | Behavior compared with NMP [2] | Solubility (% by wt.) at 25° C. [1] | Dissolution at the concentration specified in Example 4 [3] | Toxic effect observed in animal experiments [4]
COC(=O)Nc1cccc(OC(=O)Nc2cccc(C)c2)c1 [phenmedipham] | – | – | – | – | – | – | 15-20 % by wt. | – | –
COCC(C)OCC(C)OC (stereo not drawn) [Dipropylene glycol dimethyl ether] | clear | <1% | clear solution, | clear solution | clear solution | – | – | – | –
CC(C)(C)C(O)(CCc1ccc(Cl)cc1)Cn1cncn1 (stereo not drawn) [tebuconazole, R,S-1-p-chlorophenyl-4,4-dimethyl-3-(1H-1,2,4-triazol-1-yl-methyl)pentan-3-ol] | – | – | – | – | – | – | – | cannot be dissolved completely | –
CCCCCCCCCC(=O)N(C)C [Genagen 4296, N,N-dimethylcapramide] | turbid | <1% | sample separated, | clear solution | clear solution | – | – | – | –
O=CNC(N1CCN(C(NC=O)C(Cl)(Cl)Cl)CC1)C(Cl)(Cl)Cl (stereo not drawn) [triforine, N,N′-[1,4-piperazinediylbis(2,2,2-trichloroethylidene)]bis-formamide] | – | – | – | – | – | – | 15-20 % by wt. | – | –
CCC(CC)Nc1c([N+](=O)[O-])cc(C)c(C)c1[N+](=O)[O-] [pendimethalin, N-(1-ethylpropyl)-3,4-dimethyl-2,6-dinitrophenylamine] | – | – | – | – | – | – | 60-65 % by wt. | – | –
CN1CCCC1=O [N-Methylpyrrolidone, N-Methyl-2-pyrrolidone] | clear | no crystals | clear solution, | clear solution | clear solution | – | – | – | developmentally toxic effect
